Results as given in article PMC3908613 (Bioscience Reports, 2014).

Columns and labels:
BMDC [1] = assay: Cytokine production by LPS-stimulated BMDC (ELISA); assay type: cell-based, C57BL/6 mice; conditions: LPS 50 ng/ml, 18 h; for production of TNFα, IL6 and IL10: in the presence of both PD184352 (2 μM) and BIRB0796 (0.1 μM)
Description: DCs were generated from the bone marrow or the spleen of C57BL/6 mice as previously described. Briefly, bone marrow cells were cultured for 7 days at 37°C, 5% (v/v) CO2 in complete RPMI medium supplemented with 10 ng/ml recombinant granulocyte-macrophage colony-stimulating factor (GM-CSF; Peprotech). Spleen cells were cultured for 14 days at 37°C, 5% CO2 in complete RPMI containing 10 ng/ml GM-CSF and 1 ng/ml TGFβ (transforming growth factor-β; R&D Systems). NIH3T3 cells (European Cell Culture Collection) were cultured in DMEM (Dulbecco's modified Eagle's medium) supplemented with glutamine, penicillin, streptomycin and 10% (v/v) calf serum (Invitrogen). […] The amounts of TNFα (tumour necrosis factor α), IL6 (interleukin 6) and IL10 in the supernatant were measured using ELISA kits specific for each cytokine (TNFα, IL6; Peprotech, IL10; R&D Systems).

BMDC [2] = assay: FITC-dextran uptake (macropinocytosis) by BMDC; assay type: cell-based, C57BL/6 mice; conditions: LPS 50 ng/ml, FITC-dextran 1 mg/ml, increasing concentrations
Description: DCs were generated from the bone marrow or the spleen of C57BL/6 mice as previously described. Briefly, bone marrow cells were cultured for 7 days at 37°C, 5% (v/v) CO2 in complete RPMI medium supplemented with 10 ng/ml recombinant granulocyte–macrophage colony-stimulating factor (GM-CSF; Peprotech). Spleen cells were cultured for 14 days at 37°C, 5% CO2 in complete RPMI containing 10 ng/ml GM-CSF and 1 ng/ml TGFβ (transforming growth factor-β; R&D Systems). NIH3T3 cells (European Cell Culture Collection) were cultured in DMEM (Dulbecco's modified Eagle's medium) supplemented with glutamine, penicillin, streptomycin and 10% (v/v) calf serum (Invitrogen).
FITC-dextran uptake was measured as described. […] In some experiments, cells were pre-treated with 1 μM Akt-i (Merck) for 30 min. Cells were left unstimulated or were stimulated with 50 ng/ml LPS for 20 min at 37°C followed by the addition of 1 mg/ml FITC dextran (Invitrogen) for 10 min at 37°C. Cells were washed four times at 4°C in PBS supplemented with 2% (v/v) FCS (foetal calf serum) and then stained with APC (allophycocyanin)-labelled anti-CD11c antibody (BD biosciences). FITC dextran uptake was measured on an FACS Calibur (BD biosciences).

BMDC [3] = assay: Immunoblot of phosphorylated signalling proteins in stimulated BMDC; assay type: cell-based, C57BL/6 mice; conditions: 30 min
Description: BMDC (1.5×10^6 cells) were incubated in 6-well plates in RPMI supplemented with 0.3% FCS for 5 h at 37°C. […] NIH3T3 cells (2×10^4) were plated in 6-well plates for 48 h at 37°C. The cells were deprived of serum for 8 h in DMEM supplemented with 2 mg/ml BSA (Sigma) and then stimulated with 100 ng/ml EGF (epidermal growth factor; Peprotech) for 5 min at 37°C.
Cells were washed in cold PBS, lysed on ice for 10 min in lysis buffer (1% Triton X-100 containing 50 mM Tris–HCl (pH 7.5), 150 mM NaCl, 1 mM EGTA, 1 mM EDTA, 10 mM NaF, 1 mM sodium orthovanadate and 5 mM sodium pyrophosphate and protease inhibitors (Roche)) and centrifuged for 10 min at 20000 g at 4°C.
BMDC (5×10^6 cells) were stimulated as described above. Lysates were pre-cleared with protein G Sepharose beads (Roche) for 30 min at 4°C. Paxillin was immunoprecipitated with 2 μg of anti-paxillin (Millipore) or with anti-IgG antibodies (Santa Cruz Biotechnology) for 1 h at 4°C and then incubated with 15 μl protein G Sepharose beads for 1 h at 4°C. Beads were washed four times with lysis buffer and paxillin was eluted with NuPage sample buffer (Invitrogen). The immunoprecipitated proteins were separated by electrophoresis on a 10% (w/v) NuPage gel and transferred onto a nitrocellulose membrane. The membrane was probed with anti-phospho Ser250-paxilin (kind gift of Luc Sabourin, McMaster University, Canada) or anti-paxillin antibodies.

PLK1 = molecular target: T1, PLK1 (Mus musculus, UniProt Q07832); assay: Desthiobiotin-ATP probe capture on streptavidin beads, Western blot; assay type: binding, C57BL/6 mice; conditions: 10 μM inhibitor, DC lysate
T1 construct: endogenous in cells; host or cells: mouse spleen-derived dendritic cells (SDC), lysate
Description: (§1) SDC were cultured for at least 14 days in RPMI (without arginine and lysine, custom-made by Biosera) containing 10% dialysed FCS (Hyclone) supplemented with 84 mg/l of L-arginine (Sigma) and 40 mg/l L-lysine (Sigma) for the ‘light’ medium or 84 mg/l of L-arginine ^13C6 or ^13C10 and 40 mg/l L-lysine ^13C6 (Cambridge Isotope Laboratory) for the ‘heavy’ medium. Equal numbers (2×10^7) of ‘light’ or ‘heavy’ labelled SDCs were incubated in RPMI containing 0.5% FCS for 3 h in 15 cm dishes. The cells were lysed in the lysis buffer provided in the kit (Pierce). […] Labelling with the desthiobiotin ATP probe, and precipitation with streptavidin beads were performed according to the manufacturer's instructions (Pierce kinase enrichment kit or ActivX™). Equal amount of streptavidin precipitates were separated by electrophoresis as described above and probed with antibodies against Rsk2, Lok (Bethyl), Slk (Bethyl), PLK1 (Calbiochem), p38, Erk2 and Mst1 (from Cell Signaling).

Erk1/2 = molecular target: T2, Erk1/2 (Mus musculus, UniProt P63085); assay: as above; assay type: binding, C57BL/6 mice; conditions: 10 μM inhibitor, DC lysate
T2 construct: recovered on streptavidin beads following desthiobiotin-ATP labelling of DC lysates including Rsk2, Erk1/2 and p38; endogenous in cells; host or cells: mouse spleen-derived dendritic cells (SDC), lysate
Description: as §1, with “'light'” for “‘light’”, “L-arginine ^13C6” left out, “L-lysine ^13C6” left out, “'heavy'” for “‘heavy’”, “ActivXTM).” for “ActivX™). Equal amount of streptavidin precipitates were separated by electrophoresis as described above and probed with antibodies against Rsk2, Lok (Bethyl), Slk (Bethyl), PLK1 (Calbiochem), p38, Erk2 and Mst1 (from Cell Signaling).”

p38 = assay: as above; assay type: binding, C57BL/6 mice; conditions: 10 μM inhibitor, DC lysate
Description: as §1, with “'light'” for “‘light’”, “L-arginine ^13C6” left out, “L-lysine ^13C6” left out, “'heavy'” for “‘heavy’”, “ActivXTM).” for “ActivX™). Equal amount of streptavidin precipitates were separated by electrophoresis as described above and probed with antibodies against Rsk2, Lok (Bethyl), Slk (Bethyl), PLK1 (Calbiochem), p38, Erk2 and Mst1 (from Cell Signaling).”

DC = assay: Actin cytoskeleton organisation in DC (confocal microscopy); assay type: cell-based, C57BL/6 mice; conditions: 4 μM D1870 or 2 μM BIX, 1h30 at 37°C
Description: 2 μMBIXfor1h30at37◦ C. Cells were ﬁxed in 4 % (v/v) paraformalde-hyde for 15 min, permeabilized with 0.1 % Triton for 5 min and stained with phalloidin-Alexa 555 (Invitrogen) and anti-vinculin antibody (Sigma) followed by goat anti-mouse Alexa 488 antibody (invitrogen). Cells were analysed on a Zeiss700 confocal microscope. V inculin (green) and phal-loidin (red). Error bar 10 μm. Images are representative of three inde- […]
© 2014 The Author(s) This is an Open Access ar ticle distributed under the terms of the Creative Commons Attribution Licence (CC-BY) (http://creativecommons.org/licenses/by/3.0/)c which permits unrestricted use, distribution and reproduction in any medium, provided the original work is properly cited.
(1 picture or pasted object on this page, not shown here)

RSK = tested on: RSK; design: method as in PMID 22056746; conditions: read-out: in vitro IC50 RSK; cited from earlier work
[4] = tested on: panel of more than 200 kinases; design: method as in PMID 22056746; conditions: cited from earlier work
[5] = increasing concentrations of inhibitor

T2 sequence (P63085 2-358): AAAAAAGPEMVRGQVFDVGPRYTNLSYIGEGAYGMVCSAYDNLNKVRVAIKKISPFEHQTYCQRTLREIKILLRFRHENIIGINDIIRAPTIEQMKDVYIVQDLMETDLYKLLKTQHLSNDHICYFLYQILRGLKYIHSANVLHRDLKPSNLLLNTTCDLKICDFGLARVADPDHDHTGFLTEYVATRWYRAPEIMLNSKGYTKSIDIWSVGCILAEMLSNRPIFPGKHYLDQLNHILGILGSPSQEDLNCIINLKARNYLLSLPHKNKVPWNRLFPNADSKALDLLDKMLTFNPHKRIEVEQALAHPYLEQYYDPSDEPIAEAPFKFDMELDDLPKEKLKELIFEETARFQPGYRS
T1 sequence (Q07832 whole entry): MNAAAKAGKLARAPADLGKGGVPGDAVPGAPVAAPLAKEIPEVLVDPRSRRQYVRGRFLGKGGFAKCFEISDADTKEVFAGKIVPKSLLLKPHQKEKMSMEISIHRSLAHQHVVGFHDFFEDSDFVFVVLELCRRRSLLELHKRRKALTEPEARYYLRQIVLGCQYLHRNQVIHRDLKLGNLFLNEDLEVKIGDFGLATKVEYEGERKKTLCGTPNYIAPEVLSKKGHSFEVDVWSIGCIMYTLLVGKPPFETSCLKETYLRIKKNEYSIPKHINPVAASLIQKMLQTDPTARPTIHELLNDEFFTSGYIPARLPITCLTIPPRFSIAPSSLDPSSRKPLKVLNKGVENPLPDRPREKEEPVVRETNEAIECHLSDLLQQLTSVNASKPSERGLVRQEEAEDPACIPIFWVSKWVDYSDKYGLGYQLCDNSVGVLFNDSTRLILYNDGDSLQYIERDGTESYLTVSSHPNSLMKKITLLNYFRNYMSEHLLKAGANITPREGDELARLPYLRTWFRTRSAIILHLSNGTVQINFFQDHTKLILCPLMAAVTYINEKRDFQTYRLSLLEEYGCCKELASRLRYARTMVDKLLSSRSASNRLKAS

SMILES	production of TNFα, IL6 and IL10 (BMDC [1])	IL6 secretion (BMDC [1]; [5])	IL10 secretion (BMDC [1]; [5])	TNFα production (BMDC [1]; [5])	Block of TLR stimulated macropinocytosis (BMDC [2])	Erk1/2, p38 or JNK1/2 phosphorylation (BMDC [3]; LPS 50 ng/ml)	GSK3α/β phosphorylation (BMDC [3]; LPS 50 ng/ml)	PKB phosphorylation at Ser473 and Thr308 (BMDC [3]; LPS 50 ng/ml)	Phosphorylation of MSK1 and MK2 (BMDC [3]; LPS 50 ng/ml)	phosphorylation of IκBα (BMDC [3]; LPS 50 ng/ml)	phosphorylation of paxillin on Ser250 (BMDC [3]; LPS, paxillin immunoprecipitated)	Recovery of PLK1 on streptavidin beads (PLK1)	capture of Erk1/2 on streptavidin beads (Erk1/2)	capture of p38 on streptavidin beads (p38)	morphological changes in resting DC (cell spreading, focal adhesion, loss of podosomes) (DC)	IC50 (RSK) [nM]	Higher levels of BIX at which a few other kinases were affected [4]
Cc1ccc(-n2nc(C(C)(C)C)cc2NC(=O)Nc2ccc(OCCN3CCOCC3)c3ccccc23)cc1 [BIRB0796]	blocked																
C[C@@H]1CCNC(=O)c2cc3ccc(C(=O)Nc4nc5ccccc5n4CCCN(C)C)cc3n21 [BIX, BIX02565]		only partially blocked	only partially blocked	partially blocked	~ 20%	Neither inhibitor had any effect	blocked	increased	not affected	neither D1870 nor BIX affected	little effect	not affected	not Erk1/2 or p38, was blocked	not Erk1/2 or p38, was blocked	not observed	1 to 2	~ 20 fold
O=C(NOCC1CC1)c1ccc(F)c(F)c1Nc1ccc(I)cc1Cl [PD184352]	blocked																
